# Experimental data as given in ChEMBL document CHEMBL5244269, “Improving metabolic stability and removing aldehyde oxidase liability in a 5-azaquinazoline series of IRAK4 inhibitors” (Bioorg Med Chem, 2020).
# Columns and labels:
# OCI-Ly10 [1] = experiment: Growth inhibition of human OCILY10 cells at 0.17 uM incubated for 3 days (Rvb= -2%); type: functional; conditions: OCI-Ly10, 72 h, time 3 day, read-out: GI
# SUD4 [2] = experiment: Growth inhibition of human SU-DHL-4 cells at 3.3 uM incubated for 3 days (reference value: -1%); type: functional; conditions: SU-DHL-4, 72 h, time 3 day, read-out: GI
# OCI-Ly10 [3] = experiment: Growth inhibition of human OCILY10 cells at 3.3 uM incubated for 3 days (reference value: -2%); type: functional; conditions: OCI-Ly10, 72 h, time 3 day, read-out: GI
# OCI-Ly10 [4] = experiment: Growth inhibition of human OCILY10 cells at 10 uM incubated for 3 days (reference value: -2%); type: functional; conditions: OCI-Ly10, 72 h, time 3 day, read-out: GI
# OCI-Ly10 [5] = experiment: Growth inhibition of human OCILY10 cells at 0.33 uM incubated for 3 days (reference value: -2%); type: functional; conditions: OCI-Ly10, 72 h, time 3 day, read-out: GI
# [6] = Metabolic stability in minipig hepatocytes assessed as intrinsic clearance measured per 10^6 cells; type: ADME, cell-based, Sus scrofa domesticus, Hepatocyte; conditions: pig, read-out: CLH
# [7] = Metabolic stability in dog liver microsomes assessed as intrinsic clearance; type: ADME, Canis lupus familiaris, Microsome; conditions: read-out: CLH
# [8] = Metabolic stability in rat liver microsomes assessed as intrinsic clearance; type: ADME, Microsome; conditions: read-out: CLH
# [9] = Metabolic stability in minipig liver microsomes assessed as intrinsic clearance; type: ADME, Sus scrofa domesticus, Microsome; conditions: pig, read-out: CLH
# [10] = target: T1, Phosphatidylinositol 4,5-bisphosphate 3-kinase catalytic subunit delta isoform (Homo sapiens, UniProt O00329); experiment: Inhibition of PI3Kdelta (unknown origin) in presence of […] uM ATP
# T1 sequence (O00329 whole entry): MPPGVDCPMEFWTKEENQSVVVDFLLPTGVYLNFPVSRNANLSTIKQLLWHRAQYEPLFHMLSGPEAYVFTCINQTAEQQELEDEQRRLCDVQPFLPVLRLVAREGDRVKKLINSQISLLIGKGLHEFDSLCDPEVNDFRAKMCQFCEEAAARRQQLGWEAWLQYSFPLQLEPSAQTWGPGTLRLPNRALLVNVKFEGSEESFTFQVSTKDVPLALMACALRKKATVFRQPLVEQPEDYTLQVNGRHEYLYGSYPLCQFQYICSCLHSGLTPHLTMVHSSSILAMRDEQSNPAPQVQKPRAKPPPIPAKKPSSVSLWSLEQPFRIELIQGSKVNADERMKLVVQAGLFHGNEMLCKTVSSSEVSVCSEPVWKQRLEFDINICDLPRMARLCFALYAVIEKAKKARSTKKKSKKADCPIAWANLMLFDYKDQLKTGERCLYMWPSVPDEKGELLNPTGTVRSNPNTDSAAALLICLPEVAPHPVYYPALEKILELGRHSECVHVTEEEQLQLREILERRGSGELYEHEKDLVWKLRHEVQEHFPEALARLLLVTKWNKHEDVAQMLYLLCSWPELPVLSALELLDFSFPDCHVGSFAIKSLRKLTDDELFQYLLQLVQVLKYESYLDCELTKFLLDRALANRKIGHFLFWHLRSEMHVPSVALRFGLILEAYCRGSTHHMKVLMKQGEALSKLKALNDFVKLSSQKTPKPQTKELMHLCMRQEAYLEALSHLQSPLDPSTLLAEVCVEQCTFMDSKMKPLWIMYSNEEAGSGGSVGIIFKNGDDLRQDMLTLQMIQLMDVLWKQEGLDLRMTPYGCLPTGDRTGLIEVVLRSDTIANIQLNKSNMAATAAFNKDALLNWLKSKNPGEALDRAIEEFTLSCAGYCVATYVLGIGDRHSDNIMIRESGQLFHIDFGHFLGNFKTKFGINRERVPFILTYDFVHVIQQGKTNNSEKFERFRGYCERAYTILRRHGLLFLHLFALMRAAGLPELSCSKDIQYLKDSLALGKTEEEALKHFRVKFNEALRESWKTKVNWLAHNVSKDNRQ
# [11] = Metabolic stability in monkey liver microsomes assessed as intrinsic clearance; type: ADME, Macaca mulatta, Microsome; conditions: rhesus monkey, read-out: CLH
# [12] = Metabolic stability in human hepatocytes assessed as half life; type: ADME, cell-based, Hepatocyte
# [13] = target: NT-3 growth factor receptor (Homo sapiens, UniProt Q16288); experiment: Inhibition of TRKC (unknown origin) in presence of 50 uM ATP
# Chain of NT-3 growth factor receptor (Q16288 whole entry): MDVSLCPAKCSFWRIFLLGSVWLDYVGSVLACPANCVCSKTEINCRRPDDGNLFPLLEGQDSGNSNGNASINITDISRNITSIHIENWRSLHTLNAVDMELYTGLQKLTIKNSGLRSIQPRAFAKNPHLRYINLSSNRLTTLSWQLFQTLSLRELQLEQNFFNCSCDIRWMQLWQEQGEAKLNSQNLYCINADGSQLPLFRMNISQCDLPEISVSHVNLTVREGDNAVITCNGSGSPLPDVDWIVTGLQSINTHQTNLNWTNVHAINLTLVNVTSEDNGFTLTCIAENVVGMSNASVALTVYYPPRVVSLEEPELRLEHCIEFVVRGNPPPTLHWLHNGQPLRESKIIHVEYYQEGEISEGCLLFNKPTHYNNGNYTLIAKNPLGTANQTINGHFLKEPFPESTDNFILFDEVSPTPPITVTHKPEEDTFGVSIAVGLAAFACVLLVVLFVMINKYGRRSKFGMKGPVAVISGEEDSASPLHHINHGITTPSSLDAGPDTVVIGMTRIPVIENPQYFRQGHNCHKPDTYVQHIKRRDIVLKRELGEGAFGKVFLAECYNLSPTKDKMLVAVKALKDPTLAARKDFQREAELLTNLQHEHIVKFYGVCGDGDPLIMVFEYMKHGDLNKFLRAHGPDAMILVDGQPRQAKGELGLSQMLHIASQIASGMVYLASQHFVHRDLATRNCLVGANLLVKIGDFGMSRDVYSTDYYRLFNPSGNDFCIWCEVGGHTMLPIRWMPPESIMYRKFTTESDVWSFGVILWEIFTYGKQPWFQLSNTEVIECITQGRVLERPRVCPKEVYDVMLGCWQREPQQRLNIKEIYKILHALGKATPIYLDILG
# [14] = Oral bioavailability in CD1 mouse at 1 mg/kg; type: ADME, organism-based; conditions: in vivo
# [15] = target: Interleukin-1 receptor-associated kinase 1 (Homo sapiens, UniProt P51617); experiment: Inhibition of IRAK1 (unknown origin) in presence of 25 uM ATP
# Chain of Interleukin-1 receptor-associated kinase 1 (P51617 whole entry): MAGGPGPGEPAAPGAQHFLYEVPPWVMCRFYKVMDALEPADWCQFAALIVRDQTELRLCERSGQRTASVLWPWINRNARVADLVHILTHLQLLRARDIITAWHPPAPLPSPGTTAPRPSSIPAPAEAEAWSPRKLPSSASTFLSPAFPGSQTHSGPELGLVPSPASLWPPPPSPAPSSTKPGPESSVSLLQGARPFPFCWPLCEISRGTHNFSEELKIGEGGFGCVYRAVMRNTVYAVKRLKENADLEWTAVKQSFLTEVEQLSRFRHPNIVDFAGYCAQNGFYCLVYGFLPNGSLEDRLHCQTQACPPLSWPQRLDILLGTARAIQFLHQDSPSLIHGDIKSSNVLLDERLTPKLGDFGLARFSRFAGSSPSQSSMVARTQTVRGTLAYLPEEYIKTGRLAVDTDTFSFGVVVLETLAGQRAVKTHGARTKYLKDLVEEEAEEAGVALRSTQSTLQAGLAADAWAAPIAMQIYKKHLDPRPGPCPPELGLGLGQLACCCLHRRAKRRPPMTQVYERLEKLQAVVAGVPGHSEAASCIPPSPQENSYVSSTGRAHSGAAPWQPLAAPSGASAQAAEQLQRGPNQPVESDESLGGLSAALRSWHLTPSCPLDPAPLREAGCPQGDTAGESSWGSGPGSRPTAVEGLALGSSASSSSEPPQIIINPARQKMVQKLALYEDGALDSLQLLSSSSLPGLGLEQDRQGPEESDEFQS
# [16] = Volume of distribution at steady state in Han Wistar rat at 2 mg/kg, po or 1 mg/kg, iv; type: ADME, organism-based; conditions: in vivo
# [17] = target: High affinity nerve growth factor receptor (Homo sapiens, UniProt P04629); experiment: Inhibition of TRKA (unknown origin) in presence of 400 uM ATP
# Chain of High affinity nerve growth factor receptor (P04629 whole entry): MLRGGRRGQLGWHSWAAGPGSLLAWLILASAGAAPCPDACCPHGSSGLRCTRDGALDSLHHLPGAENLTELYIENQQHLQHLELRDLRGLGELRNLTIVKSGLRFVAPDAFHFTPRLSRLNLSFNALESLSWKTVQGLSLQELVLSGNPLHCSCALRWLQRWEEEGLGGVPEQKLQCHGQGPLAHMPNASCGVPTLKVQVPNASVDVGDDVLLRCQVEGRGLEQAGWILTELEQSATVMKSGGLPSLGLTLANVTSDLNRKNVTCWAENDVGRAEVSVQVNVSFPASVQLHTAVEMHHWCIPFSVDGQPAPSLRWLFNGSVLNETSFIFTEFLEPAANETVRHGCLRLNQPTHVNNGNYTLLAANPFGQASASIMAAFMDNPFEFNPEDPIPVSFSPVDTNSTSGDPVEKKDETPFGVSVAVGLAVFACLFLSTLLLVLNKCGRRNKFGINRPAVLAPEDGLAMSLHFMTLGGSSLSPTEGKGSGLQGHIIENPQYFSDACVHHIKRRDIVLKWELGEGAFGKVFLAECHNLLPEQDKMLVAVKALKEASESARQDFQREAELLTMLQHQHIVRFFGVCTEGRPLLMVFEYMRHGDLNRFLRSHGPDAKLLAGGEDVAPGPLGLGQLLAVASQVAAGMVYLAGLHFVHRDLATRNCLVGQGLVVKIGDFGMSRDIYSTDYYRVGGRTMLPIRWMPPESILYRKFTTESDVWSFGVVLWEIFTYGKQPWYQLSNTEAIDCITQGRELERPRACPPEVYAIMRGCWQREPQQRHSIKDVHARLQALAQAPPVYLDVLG
# OCI-Ly10 [18] = experiment: Growth inhibition of human OCILY10 cells at 10 uM incubated for 3 days (Rvb= -3%); type: functional; conditions: OCI-Ly10, 72 h, time 3 day, read-out: GI
# [19] = Efflux ratio of apparent permeability basolateral to apical side over apical to basolateral side in human Caco-2 cells measured for 360 mins by liquid scintillation counting based analysis; type: ADME, cell-based
# [20] = Metabolic stability in monkey hepatocytes assessed as intrinsic clearance measured per 10^6 cells; type: ADME, cell-based, Macaca mulatta, Hepatocyte; conditions: rhesus monkey, read-out: CLH
# OCI-Ly10 [21] = experiment: Growth inhibition of human OCILY10 cells at 0.33 uM incubated for 3 days (Rvb= -3%); type: functional; conditions: OCI-Ly10, 72 h, time 3 day, read-out: GI
# [22] = Plasma protein binding in mouse assessed as free fraction by equilibrium dialysis analysis; type: ADME, cell-free
# [23] = Plasma protein binding in human assessed as free fraction by equilibrium dialysis analysis; type: ADME, cell-free
# [24] = Metabolic stability in human cytosol assessed as intrinsic clearance; type: ADME, subcellular
# [25] = Metabolic stability in human liver microsomes assessed as half life; type: ADME, Microsome
# [26] = Volume of distribution at steady state in cynomolgus monkey at 1 mg/kg, iv; type: ADME, organism-based, Macaca fascicularis; conditions: in vivo, read-out: Vdss
# [27] = Oral bioavailability in Han Wistar rat at 2 mg/kg; type: ADME, organism-based; conditions: in vivo
# [28] = Terminal half life in cynomolgus monkey at 1 mg/kg, iv; type: ADME, organism-based, Macaca fascicularis; conditions: in vivo, read-out: beta t1/2 (converted)
# [29] = Metabolic stability in dog hepatocytes assessed as intrinsic clearance measured per 10^6 cells; type: ADME, cell-based, Canis lupus familiaris, Hepatocyte; conditions: read-out: CLH
# [30] = Metabolic stability in mouse liver microsomes assessed as intrinsic clearance; type: ADME, Microsome; conditions: read-out: CLH
# [31] = target: T2, Phosphatidylinositol 4,5-bisphosphate 3-kinase catalytic subunit delta isoform (Homo sapiens) (UniProt O00329); experiment: Inhibition of PI3Kdelta (unknown origin) at 0.1 uM relative to control
# T2 sequence (whole entry): T1 sequence (O00329 whole entry)
# [32] = Plasma protein binding in rat assessed as free fraction by equilibrium dialysis analysis; type: ADME, cell-free
# SUD4 [33] = experiment: Growth inhibition of human SU-DHL-4 cells at 1.7 uM incubated for 3 days (reference value: 2%); type: functional; conditions: SU-DHL-4, 72 h, time 3 day, read-out: GI
# SUD4 [34] = experiment: Growth inhibition of human SU-DHL-4 cells at 0.33 uM incubated for 3 days (reference value: 2%); type: functional; conditions: SU-DHL-4, 72 h, time 3 day, read-out: GI
# SUD4 [35] = experiment: Growth inhibition of human SU-DHL-4 cells at 3.3 uM incubated for 3 days (reference value: 2%); type: functional; conditions: SU-DHL-4, 72 h, time 3 day, read-out: GI
# SUD4 [36] = experiment: Growth inhibition of human SU-DHL-4 cells at 10 uM incubated for 3 days (reference value: 2%); type: functional; conditions: SU-DHL-4, 72 h, time 3 day, read-out: GI
# [37] = Oral bioavailability in rat at 1 mg/kg; type: ADME, organism-based; conditions: in vivo
# [38] = Oral bioavailability in mouse at 1 mg/kg; type: ADME, organism-based; conditions: in vivo
smiles,measurement,setting,value
CC[C@@H]1[C@H](F)C(=O)N[C@@H]1COc1nccc2cc(C(N)=O)c(OC)cc12 [ZIMLOVISERTIB],inhibition of growth at 0.17 µM,OCI-Ly10 [1],5%
same,inhibition of growth at 3.3 µM,SUD4 [2],1%
same,inhibition of growth at 3.3 µM,OCI-Ly10 [3],20%
same,inhibition of growth at 10 µM,OCI-Ly10 [4],63%
same,inhibition of growth at 0.33 µM,OCI-Ly10 [5],5%
Cc1ncc(-c2nc3c(OC4(C)CC4)nc(Nc4cnn(C5CCN(C)CC5)c4)nc3cc2F)cn1,hepatocyte CLint,[6],8.2 µL/min/1e6 cells
same,microsomal CLint,[7],21 µL/min/mg
same,microsomal CLint,[8],16 µL/min/mg
same,microsomal CLint,[9],18 µL/min/mg
same,IC50,[10],53 nM
same,microsomal CLint,[11],35 µL/min/mg
same,half-life,[12],30 h
same,IC50,[13],270 nM
same,bioavailability,[14],66%
same,IC50,[15],1400 nM
same,Vdss,[16],4.3 L/kg
same,IC50,[17],270 nM
same,inhibition of growth at 3.3 µM,SUD4 [2],-2%
same,inhibition of growth at 10 µM,OCI-Ly10 [18],148%
same,efflux ratio at 6 h,[19],1.4
same,hepatocyte CLint,[20],4.7 µL/min/1e6 cells
same,inhibition of growth at 0.33 µM,OCI-Ly10 [21],8%
same,fraction unbound,[22],0.16
same,fraction unbound,[23],0.21
same,microsomal CLint,[24],< 0.5 µL/min/mg
same,half-life,[25],3 h
same,Vd,[26],8.6 L/kg
same,bioavailability,[27],55%
same,half-life,[28],1.4 h
same,hepatocyte CLint,[29],4.5 µL/min/1e6 cells
same,microsomal CLint,[30],13 µL/min/mg
same,inhibition,[31],61%
same,fraction unbound,[32],0.21
Cc1ncc(-c2nc3c(NC(C)C)nc(Nc4cnn(C5CC6(C5)CN(C)C6)c4)nc3cc2F)cn1,IC50,[10],230 nM
same,inhibition of growth at 1.7 µM,SUD4 [33],3%
same,IC50,[13],570 nM
same,IC50,[15],1200 nM
same,inhibition of growth at 0.33 µM,SUD4 [34],3%
same,inhibition of growth at 3.3 µM,SUD4 [35],4%
same,IC50,[17],480 nM
same,inhibition of growth at 10 µM,OCI-Ly10 [18],157%
same,efflux ratio at 6 h,[19],4.2
same,inhibition of growth at 0.33 µM,OCI-Ly10 [21],35%
same,inhibition of growth at 10 µM,SUD4 [36],6%
same,bioavailability,[37],≤ 10%
same,bioavailability,[38],≤ 10%
